Substitutions are numbered along the chain they refer to.
Experiments:
[1] = target: T1, Glycine receptor (alpha-1/beta) (Homo sapiens, UniProt P23415+P48167); assay: Antagonist activity at recombinant human glycine receptor alpha 1 beta expressed in human tsA201 cells assessed as inhibition of glycine-induced receptor activation after 30 mins by FLIPR membrane potential blue assay; format: cell-based
[2] = target: T2, Glycine receptor subunit alpha-1 (Homo sapiens, UniProt P23415); assay: Antagonist activity at recombinant human glycine receptor alpha 1 expressed in human tsA201 cells assessed as inhibition of glycine-induced receptor activation after 30 mins by FLIPR membrane potential blue assay; format: cell-based
T2 sequence (P23415 whole entry): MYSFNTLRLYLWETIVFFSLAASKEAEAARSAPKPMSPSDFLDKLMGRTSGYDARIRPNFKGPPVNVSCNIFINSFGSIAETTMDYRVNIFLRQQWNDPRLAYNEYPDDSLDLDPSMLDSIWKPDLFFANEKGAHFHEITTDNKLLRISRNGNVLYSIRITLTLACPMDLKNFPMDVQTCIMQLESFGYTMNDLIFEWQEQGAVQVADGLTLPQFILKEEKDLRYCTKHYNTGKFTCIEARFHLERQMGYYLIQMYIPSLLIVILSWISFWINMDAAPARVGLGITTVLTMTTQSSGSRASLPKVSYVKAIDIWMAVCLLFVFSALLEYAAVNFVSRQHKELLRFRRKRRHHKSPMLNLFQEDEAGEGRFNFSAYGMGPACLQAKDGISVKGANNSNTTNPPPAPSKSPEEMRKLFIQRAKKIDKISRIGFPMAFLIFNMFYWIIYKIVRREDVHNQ

[3] = target: T2, Glycine receptor subunit alpha-1; assay: Antagonist activity at recombinant human glycine receptor alpha 1 expressed in HEK293 cells assessed as inhibition of glycine-induced current at -50 mV holding potential by whole cell patch-clamp method; format: cell-based
[4] = target: T1, Glycine receptor (alpha-1/beta); assay: Antagonist activity at recombinant human glycine receptor alpha 1 beta expressed in HEK293 cells assessed as inhibition of glycine-induced current at -50mV holding potential by whole cell patch-clamp method; format: cell-based
[5] = target: T3, Glycine receptor subunit alpha-1 (Rattus norvegicus, UniProt P07727)
T3 sequence (P07727 whole entry): T2 sequence (P23415 whole entry) with L9F, E27D, E362D, A365G, S396N, P402A, Q457K
Description: Displacement of [3H]strychnine from glycine receptor alpha 1 in rat brain synaptic membranes

Homo sapiens = organism: Homo sapiens; assay: Selectivity ratio of IC50 for recombinant human glycine receptor alpha 1 beta expressed in human tsA201 cells to IC50 for recombinant human glycine receptor alpha 1 expressed in human tsA201 cells; format: cell-based
[6] = target: T2, Glycine receptor subunit alpha-1; assay: Displacement of [3H]strychnine from recombinant human glycine receptor alpha 1 expressed in HEK293 cell membranes after 30 mins by liquid scintillation counting method

T1 sequence (P48167 whole entry, one chain of several): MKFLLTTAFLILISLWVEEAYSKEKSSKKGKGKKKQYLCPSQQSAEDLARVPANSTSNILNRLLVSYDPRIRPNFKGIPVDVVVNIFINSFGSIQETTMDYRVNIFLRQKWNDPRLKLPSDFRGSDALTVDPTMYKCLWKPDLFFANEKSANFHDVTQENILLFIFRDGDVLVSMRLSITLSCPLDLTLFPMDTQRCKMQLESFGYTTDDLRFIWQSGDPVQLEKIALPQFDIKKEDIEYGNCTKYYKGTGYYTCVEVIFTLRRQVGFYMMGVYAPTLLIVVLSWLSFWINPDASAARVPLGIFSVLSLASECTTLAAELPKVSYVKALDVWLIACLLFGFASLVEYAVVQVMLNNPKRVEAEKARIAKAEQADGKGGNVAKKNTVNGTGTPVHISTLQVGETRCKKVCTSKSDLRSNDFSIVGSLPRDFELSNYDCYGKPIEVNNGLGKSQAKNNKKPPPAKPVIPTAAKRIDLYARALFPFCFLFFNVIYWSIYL

Compound | IC50 [1] [nM] | IC50 ([2]; read-out: IC50) [nM] | IC50 [3] [nM] | IC50 [4] [nM] | Ki [5] [nM] | Ratio IC50 (Homo sapiens) | Ki [6] [nM] | IC50 ([2]; read-out: pIC50 (converted)) [nM]
O=C1C[C@@]23c4ccccc4N4C(=O)C[C@@H]5OCC=C6CN1[C@H]2C[C@@H]6[C@@H]5[C@H]43 | 9800 | 6900 | – | – | – | – | – | –
COC(=O)CCCCO/N=C1/C(=O)N2c3ccccc3[C@@]34CCN5CC6=CCO[C@@H]1[C@@H]([C@H]23)[C@H]6C[C@H]54 | 1500 | 720 | – | – | – | – | – | –
Nc1ccc2c(c1)[C@@]13CCN4CC5=CCO[C@H]6CC(=O)N2[C@H]1[C@H]6[C@H]5C[C@H]43 | 270 | 77 | 76 | 97 | 18 | 3 to 4 | – | –
CCC[N+]12CC[C@@]34c5ccccc5N5C(=O)C[C@@H]6OCC=C(C1)[C@H](C[C@@H]32)[C@@H]6[C@H]54 (stereo partly specified) | 13000 | 10000 | 4590 | 6530 | – | – | – | –
COC(=O)CO/N=C1/C(=O)N2c3ccccc3[C@@]34CCN5CC6=CCO[C@@H]1[C@@H]([C@H]23)[C@H]6C[C@H]54 | 670 | 220 | – | – | – | – | – | –
CCC(=O)Nc1ccc2c(c1)[C@@]13CCN4CC5=CCO[C@H]6CC(=O)N2[C@H]1[C@H]6[C@H]5C[C@H]43 | 940 | 540 | 201 | 311 | – | – | 67 | –
O=C1/C(=N/OCc2ccccc2)[C@@H]2OCC=C3CN4CC[C@]56c7ccccc7N1[C@H]5[C@H]2[C@H]3C[C@H]46 | 310 | 170 | – | – | – | – | – | –
C#CCO/N=C1/C(=O)N2c3ccccc3[C@@]34CCN5CC6=CCO[C@@H]1[C@@H]([C@H]23)[C@H]6C[C@H]54 | 240 | 52 | 59 | 43 | – | – | – | –
CCCCO/N=C1/C(=O)N2c3ccccc3[C@@]34CCN5CC6=CCO[C@@H]1[C@@H]([C@H]23)[C@H]6C[C@H]54 | 880 | 370 | – | – | – | – | – | 380
CCCO/N=C1/C(=O)N2c3ccccc3[C@@]34CCN5CC6=CCO[C@@H]1[C@@H]([C@H]23)[C@H]6C[C@H]54 | 350 | 110 | 109 | 116 | – | 3 to 4 | 241 | –
O=C1/C(=N/OCCc2ccccc2)[C@@H]2OCC=C3CN4CC[C@]56c7ccccc7N1[C@H]5[C@H]2[C@H]3C[C@H]46 | 780 | 690 | – | – | – | – | – | 708
CC(C)CO/N=C1/C(=O)N2c3ccccc3[C@@]34CCN5CC6=CCO[C@@H]1[C@@H]([C@H]23)[C@H]6C[C@H]54 | 1100 | 260 | – | – | – | 3 to 4 | – | –
CO/N=C1/C(=O)N2c3ccccc3[C@@]34CCN5CC6=CCO[C@@H]1[C@@H]([C@H]23)[C@H]6C[C@H]54 | 210 | 100 | 75 | 56 | – | – | 189 | –
CCCCCO/N=C1/C(=O)N2c3ccccc3[C@@]34CCN5CC6=CCO[C@@H]1[C@@H]([C@H]23)[C@H]6C[C@H]54 | 710 | 250 | – | – | – | 3 to 4 | – | –
O=C1C[C@@H]2OCC=C3CN4CC[C@]56c7ccccc7N1[C@H]5[C@H]2[C@H]3C[C@H]46 [STRYCHNINE] | 180 | 93 | 51 | 58 | 12 | – | 23 | –
C=CCO/N=C1/C(=O)N2c3ccccc3[C@@]34CCN5CC6=CCO[C@@H]1[C@@H]([C@H]23)[C@H]6C[C@H]54 | 150 | 95 | 49 | 46 | – | – | 370 | –
